Values joined by “and” are separate entries in the source; they are usually repeats but may differ in a detail not shown here. Equal values may be shown once.
Columns and labels:
[1] = molecular target: T1, BRD3 (Homo sapiens, UniProt Q15059); test: Live cell kinetic HiBiT degradation assay, HiBiT-BRD3 HEK293 cells; format: cell-based; settings: for λmax BRD3 (degradation rate): HiBiT-BRD3 knock-in HEK293 cells; for DC50: HiBiT-BRD3 CRISPR knock-in HEK293 cells, live cell kinetic degradation, 24 h, read-out: Dmax 50 BRD3
T1 construct: HiBiT, is appended to the N-terminus of endogenous BRD2, BRD3, and BRD4; endogenous in cells
Protocol: HEK293 HiBiT-BRD2 (LgBiT stable), HEK293 HiBiT-BRD3 (LgBiT stable), and HEK293 HiBiT-BRD4 (LgBiT stable) were created using CRISPR/Cas9 to insert at HiBiT tag at the N-terminal genomic loci of BRD2, BRD3, or BRD4 in a cell line stably expressing LgBiT protein as described previously.[23]
For kinetic degradation experiments, HEK293 HiBiT-BRD2, 3, or 4 (LgBiT stable) cells and HEK293 HiBiT-BRD4 (LgBiT) CRBN KO and VHL KO cells were plated at 20,000 cells/well in DMEM +10% FBS in white 96-well tissue culture plates and allowed to adhere overnight. The next day, media was removed and 90 μL of prewarmed CO2-independent medium (Gibco) containing Endurazine (Promega) at a 1:100 dilution from stock was added. Plates were incubated at 37 °C for 3 h to allow luminescence to equilibrate. A threefold dilution series of each PROTAC at 10x the desired final concentration was prepared (with the amount of DMSO in each treatment condition kept constant). After luminescence equilibration, a preread luminescence measurement was taken (prior to compound addition) to allow for baseline normalization to account for possible plating differences. Cells were then treated with 10 μL of the prepared PROTAC dilution series (in triplicate or quadruplicate). Treated plates were placed in a GloMax Discover luminometer (Promega) prewarmed to 37 °C and luminescence measurements were obtained every 7 min for 24 h. Kinetic degradation plots were obtained by first normalizing time course luminescence readings in each well to the preread measurement, then to the average value of the DMSO only control at each time point. Data was analyzed using GraphPad Prism (version 8) and excel. Dmax values were identified as the lowest luminescence reading in each well. Rate constant values were calculated using a one phase exponential decay Y = (Y0-Plateau) e(K*^X) + Plateau using Prism (Y0 constrained to 1). Dmax 50 values were calculated by plotting Dmax as a function of concentration, then fitting plots using the following equation: [drawing 1] to determine IC50.

[2] = test system: RKO WT cells; test: cells; format: cell-based, human; settings: Homo sapiens, WT RKO, 316 pM to 10 μM, n = 3 (Table S4); read-out: EC50 RKO
[3] = molecular target: BRD4 (Homo sapiens, UniProt O60885); test: Live cell kinetic HiBiT degradation assay, HiBiT-BRD4 HEK293 cells (parental, CRBN KO, VHL KO); format: cell-based; settings: for EC50: HiBiT-BRD4 CRISPR knock-in HEK293 cells, live cell kinetic degradation, 24 h, read-out: Dmax 50 BRD4; for λmax BRD4 (degradation rate): HiBiT-BRD4 knock-in HEK293 cells; for fold increase in degradation of BRD4 (Dmax 50) vs matched pair: 23 vs 1, 26 vs 23, 30 vs 2, HiBiT-BRD4 HEK293 cells
In short: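 Endogenous N-terminal HiBiT-BRD4 HEK293 cells stably expressing LgBiT (parental, CRBN KO, VHL KO) in CO2-independent medium with Endurazine, pre-equilibrated 3 h at 37 °C. Luminescence read every 7 min for 24 h after PROTAC addition (threefold series), normalized to pre-read and DMSO. Dmax = lowest reading; rate from one-phase decay; Dmax50 from Dmax-vs-concentration fit.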

T1 sequence (Q15059 whole entry): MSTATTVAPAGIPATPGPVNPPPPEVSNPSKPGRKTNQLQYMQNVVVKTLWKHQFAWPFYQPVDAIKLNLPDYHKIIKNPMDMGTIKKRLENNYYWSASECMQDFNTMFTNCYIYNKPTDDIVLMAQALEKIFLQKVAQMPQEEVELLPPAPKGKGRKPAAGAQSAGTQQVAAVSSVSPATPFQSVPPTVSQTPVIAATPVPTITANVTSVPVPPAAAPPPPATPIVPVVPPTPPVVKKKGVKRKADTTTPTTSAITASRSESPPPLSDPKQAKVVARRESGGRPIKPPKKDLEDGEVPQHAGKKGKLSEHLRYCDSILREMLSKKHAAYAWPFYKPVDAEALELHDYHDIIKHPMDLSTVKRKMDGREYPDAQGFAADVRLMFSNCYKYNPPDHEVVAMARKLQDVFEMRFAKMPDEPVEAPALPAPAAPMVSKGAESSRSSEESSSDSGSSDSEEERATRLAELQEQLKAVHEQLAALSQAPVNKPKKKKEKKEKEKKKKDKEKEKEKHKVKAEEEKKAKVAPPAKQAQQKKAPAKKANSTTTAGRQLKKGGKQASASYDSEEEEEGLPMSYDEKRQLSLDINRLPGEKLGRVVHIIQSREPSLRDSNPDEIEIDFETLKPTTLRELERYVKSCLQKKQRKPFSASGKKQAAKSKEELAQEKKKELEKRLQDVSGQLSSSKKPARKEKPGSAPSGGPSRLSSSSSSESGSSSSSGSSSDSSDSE

Row | λmax BRD3 (degradation rate) [1] | EC50 [2] | EC50 [3] | λmax BRD4 (degradation rate) [3] | DC50 [1] | fold increase in degradation of BRD4 (Dmax 50) vs matched pair [3] | Compound
1 | 2.66 h⁻¹ | 151 nM | 3 nM | 2.16 h⁻¹ |  |  | Cc1ncsc1-c1ccc([C@H](C)NC(=O)[C@@H]2C[C@@H](O)CN2C(=O)[C@@H](NC(=O)COCC(C)(COCCOCCOCCNc2cccc3c2C(=O)N(C2CCC(=O)NC2=O)C3=O)COCCOCCOCCOC(=O)C[C@@H]2N=C(c3ccc(Cl)cc3)c3c(sc(C)c3C)-n3c(C)nnc32)C(C)(C)C)cc1 (mixture of isomers) [AB3066 (24), (17S)-11-((2-(2-(2-((2-(2,6-dioxopiperidin-3-yl)-1,3-dioxoisoindolin-4-yl)amino)ethoxy)ethoxy)ethoxy)methyl)-17-((2S,4R)-4-hydroxy-2-(((S)-1-(4-(4-methylthiazol-5-yl)phenyl)ethyl)carbamoyl)pyrrolidine-1-carbonyl)-11,18,18-trimethyl-15-oxo-3,6,9,13-tetraoxa-16-azanonadecyl 2-((S)-4-(4-chlorophenyl)-2,3,9-trimethyl-6H-thieno[3,2-f][1,2,4]triazolo[4,3-a][1,4]diazepin-6-yl)acetate]
2 | 2.60 h⁻¹ and 2.6 h⁻¹ | 369 nM | 8.2 nM | 1.76 h⁻¹ | 3 nM | 6.7 fold | Cc1ncsc1-c1ccc(CNC(=O)[C@@H]2C[C@@H](O)CN2C(=O)[C@@H](NC(=O)COCC(C)(COCCOCCNc2cc3c(cc2F)C(=O)N(C2CCC(=O)NC2=O)C3=O)COCCOCCOC(=O)C[C@@H]2N=C(c3ccc(Cl)cc3)c3c(sc(C)c3C)-n3c(C)nnc32)C(C)(C)C)cc1 (mixture of isomers) [AB3125 (30), (14S)-8-((2-(2-((2-(2,6-dioxopiperidin-3-yl)-6-fluoro-1,3-dioxoisoindolin-5-yl)amino)ethoxy)ethoxy)methyl)-14-((2S,4R)-4-hydroxy-2-((4-(4-methylthiazol-5-yl)benzyl)carbamoyl)pyrrolidine-1-carbonyl)-8,15,15-trimethyl-12-oxo-3,6,10-trioxa-13-azahexadecyl 2-((S)-4-(4-chlorophenyl)-2,3,9-trimethyl-6H-thieno[3,2-f][1,2,4]triazolo[4,3-a][1,4]diazepin-6-yl)acetate]

Further lines, the compound ahead of its results:

Row | Compound | λmax BRD3 (degradation rate) [1] | EC50 [2] | EC50 [3] | λmax BRD4 (degradation rate) [3] | DC50 [1] | fold increase in degradation of BRD4 (Dmax 50) vs matched pair [3]
3 | Cc1ncsc1-c1ccc(CNC(=O)[C@@H]2C[C@@H](O)CN2C(=O)[C@@H](NC(=O)COCC(C)(COCCOCCOCCOC(=O)C[C@@H]2N=C(c3ccc(Cl)cc3)c3c(sc(C)c3C)-n3c(C)nnc32)COCCOCCOCCN2CCN(c3cc4c(cc3F)C(=O)N(C3CCC(=O)NC3=O)C4=O)CC2)C(C)(C)C)cc1 (mixture of isomers) [AB3030 (32), (17S)-11-((2-(2-(2-(4-(2-(2,6-dioxopiperidin-3-yl)-6-fluoro-1,3-dioxoisoindolin-5-yl)piperazin-1-yl)ethoxy)ethoxy)ethoxy)methyl)-17-((2S,4R)-4-hydroxy-2-((4-(4-methylthiazol-5-yl)benzyl)carbamoyl)pyrrolidine-1-carbonyl)-11,18,18-trimethyl-15-oxo-3,6,9,13-tetraoxa-16-azanonadecyl 2-((S)-4-(4-chlorophenyl)-2,3,9-trimethyl-6H-thieno[3,2-f][1,2,4]triazolo[4,3-a][1,4]diazepin-6-yl)acetate] | 2.97 h⁻¹ | 402 nM | 7.4 nM | 2.19 h⁻¹ | 1.7 nM | 
4 | Cc1ncsc1-c1ccc(CNC(=O)[C@@H]2C[C@@H](O)CN2C(=O)[C@@H](NC(=O)COCC(C)(COCCOCCOCCNc2cccc3c2C(=O)N(C2CCC(=O)NC2=O)C3=O)COCCOCCOC(=O)C[C@@H]2N=C(c3ccc(Cl)cc3)c3c(sc(C)c3C)-n3c(C)nnc32)C(C)(C)C)cc1 (mixture of isomers) [AB3064 (25), (14S)-8-((2-(2-(2-((2-(2,6-dioxopiperidin-3-yl)-1,3-dioxoisoindolin-4-yl)amino)ethoxy)ethoxy)ethoxy)methyl)-14-((2S,4R)-4-hydroxy-2-((4-(4-methylthiazol-5-yl)benzyl)carbamoyl)pyrrolidine-1-carbonyl)-8,15,15-trimethyl-12-oxo-3,6,10-trioxa-13-azahexadecyl 2-((S)-4-(4-chlorophenyl)-2,3,9-trimethyl-6H-thieno[3,2-f][1,2,4]triazolo[4,3-a][1,4]diazepin-6-yl)acetate] | 1.69 h⁻¹ | 904 nM | 31 nM | 1.09 h⁻¹ | 8.1 nM | 
5 | Cc1ncsc1-c1ccc(CNC(=O)[C@@H]2C[C@@H](O)CN2C(=O)[C@@H](NC(=O)COCC(C)(COCCOCCOCCNc2cccc3c2C(=O)N(C2CCC(=O)NC2=O)C3=O)COCCOCCOCCOC(=O)C[C@@H]2N=C(c3ccc(Cl)cc3)c3c(sc(C)c3C)-n3c(C)nnc32)C(C)(C)C)cc1 (mixture of isomers) [AB3062 (23), (17S)-11-((2-(2-(2-((2-(2,6-dioxopiperidin-3-yl)-1,3-dioxoisoindolin-4-yl)amino)ethoxy)ethoxy)ethoxy)methyl)-17-((2S,4R)-4-hydroxy-2-((4-(4-methylthiazol-5-yl)benzyl)carbamoyl)pyrrolidine-1-carbonyl)-11,18,18-trimethyl-15-oxo-3,6,9,13-tetraoxa-16-azanonadecyl 2-((S)-4-(4-chlorophenyl)-2,3,9-trimethyl-6H-thieno[3,2-f][1,2,4]triazolo[4,3-a][1,4]diazepin-6-yl)acetate] | 2.06 h⁻¹ | 420 nM | 11 nM | 1.40 h⁻¹ | 5.7 nM | 3.4 fold
